Reference: US9493466B2, “Treatment of cancer with TOR kinase inhibitors” (Signal Pharmaceuticals, LLC, priority 2011, dated 2016)

Columns and labels:
NCI-H1703 = test: Cell viability assay for NSCLC lines; format: cell-based, human; conditions: NCI-H1703, 3 days
Procedure: (§1) Cell Viability Assay for NSCLC Lines. Cell viability was assessed using the Cell Titer-Glo Luminescent Cell Viability from Promega. The assay is a homogenous method of determining the number of viable cells in culture based on quantitation of the adenosine triphosphate (ATP) present, an indicator of metabolically active cells. The homogenous assay procedure involves adding the single reagent (CellTiter-Glo Reagent) directly to cells cultured in serum-supplemented medium. Cells were plated into a 96-well flat bottom plate (Costar Catalog Number 33595) at densities that were previously optimized for each cell line. The cells were incubated overnight in 5% CO2 at 37° C. The following day, compound dilutions were prepared and all concentrations were assayed in triplicate. The cells were incubated with Compound 1 (0.03 μM, 0.1 μM, 0.3 μM, 1 μM, 3 μM, 10 μM and 30 μM for NSCLC cells) in 5% CO2 at 37° C. for 3 days. After a 3-day incubation period, 100 μL of CellTiter-Glo reagent was added to each well for 2 minutes with shaking and further incubated for 10 minutes (no shaking) at room temperature to stabilize the signal. The luminescence was measured on the VICTOR X2 multilabel plate reader. The percent growth inhibition was calculated using the DMSO control in the same plate (no compound) response as 100% cell growth. The average values from triplicates were plotted to obtain IC50 values using software XLfit from IDBS. The formula used for determining IC50 in XLfit was model number 205, which utilizes a 4 Parameter Logistic Model or Sigmoidal Dose-Response Model to calculate the IC50 values. All IC50 values are reported as an average from either two independent experiments or a single experiment.

NCI-H1568 = test: Cell viability assay for NSCLC lines; format: cell-based, human; conditions: NCI-H1568, 3 days
Procedure: as §1

NCI-H596 = test: Cell viability assay for NSCLC lines; format: cell-based, human; conditions: NCI-H596, 3 days
Procedure: as §1

NCI-H1437 = test: Cell viability assay for NSCLC lines; format: cell-based, human; conditions: NCI-H1437, 3 days
Procedure: as §1

NCI-H2009 = test: Cell viability assay for NSCLC lines; format: cell-based, human; conditions: NCI-H2009, 3 days
Procedure: as §1

NCI-H838 = test: Cell viability assay for NSCLC lines; format: cell-based, human; conditions: NCI-H838, 3 days
Procedure: as §1

U87MG tumors = test: U87MG human glioblastoma xenograft model (Compound 2); format: in vivo, SCID mice
Procedure: U87MG Human Glioblastoma Xenograft Model (Compound 2). Efficacy Studies: Groups of female SCID mice bearing U87MG tumors (n=8-10/group) were dosed orally with vehicle or Compound 2 (doses ranged between 0.05 and 1 mg/kg) throughout the study, starting when tumor volumes reached approximately 170-180 mm^3. The twice daily (BID) dose groups were dosed with a 10-hour separation between morning and evening doses. In the positive control group, rapamycin was administered every third day (Q3D) via intraperitoneal (IP) route. At the end of each study, plasma and/or tumor samples were collected.
Cell Line and Culture. U87MG cell line was obtained from American Tissue Culture Collection (ATCC) (Gaithersburg, Md.) and grown in growth medium containing MEM, 2 mM L-glutamine, 0.1 mM non-essential amino acids, and 1 mM sodium pyruvate plus 10% FBS. The cells were detached from tissue culture flasks using trypsin-EDTA. After centrifugation, the cell pellets were suspended in PBS and cells counted using a hemocytometer. The final volume was adjusted to 5×10^6 cells/0.1 mL of PBS.
Tumor Cell Inoculation. […]
Randomization of Animals. […] The tumor of each animal was measured and animals with tumors ranging between 170 and 180 mm^3 were included in the study. […]
Tumor Measurements. Tumor volumes were determined prior to the initiation of treatment and were considered as the starting volumes. Thereafter, tumors were measured twice a week for the duration of the study. The long and short axes of each tumor were measured using a digital caliper in millimeters. Tumor volumes were calculated using the formula: width^2×length/2. […]
Body Weight Measurements. Initial body weights were recorded prior to the initiation of treatment using a digital scale. The percentage body weight change during the course of the study was calculated using initial body weight measurements. Body weights of each animal were measured twice a week at the same time as the tumor measurements. Body weights were measured more frequently if significant decreases were noted during the course of the study.

Row | Compound | IC50 (NCI-H1703) | IC50 (NCI-H1568) | IC50 (NCI-H596) | IC50 (NCI-H1437) | IC50 (NCI-H2009) | IC50 (NCI-H838) | average tumor volumes compared with vehicle (U87MG tumors; 0.05, 0.1 and 0.3 mg/kg BID oral, Day 35) | average tumor volumes compared with vehicle (U87MG tumors; 0.1, 0.5 and 1 mg/kg QD oral, Day 34) | lowest efficacious dose (approximately 65% tumor volume inhibition) (U87MG tumors; QD oral, 3 weeks)
1 | CO[C@H]1CC[C@H](N2C(=O)CNc3ncc(-c4ccc(C(C)(C)O)nc4)nc32)CC1 [Compound 1, 7-(6-(2-hydroxypropan-2-yl)pyridin-3-yl)-1-((1r,4r)-4-methoxycyclohexyl)-3,4-dihydropyrazino-[2,3-b]pyrazin-2(1H)-one] | 920 nM | 226 nM | 2200 nM | 975 nM | 26000 nM | 390 nM | – | – | –
2 | CCN1C(=O)CNc2ncc(-c3ccc(-c4nc[nH]n4)nc3C)nc21 [Compound 2, 1-ethyl-7-(2-methyl-6-(1H-1,2,4-triazol-3-yl)pyridin-3-yl)-3,4-dihydropyrazino[2,3-b]pyrazin-2(1H)-one] | – | – | – | – | – | – | significantly smaller (p<0.001) | significantly smaller (p<0.001) | 0.5 mg/kg
